Results reported in ChEMBL document CHEMBL3886974, “Imidazopyrazines” (2016).

Target: T1, Dual specificity protein kinase TTK (Homo sapiens, UniProt P33981)
T1 sequence (P33981 whole entry): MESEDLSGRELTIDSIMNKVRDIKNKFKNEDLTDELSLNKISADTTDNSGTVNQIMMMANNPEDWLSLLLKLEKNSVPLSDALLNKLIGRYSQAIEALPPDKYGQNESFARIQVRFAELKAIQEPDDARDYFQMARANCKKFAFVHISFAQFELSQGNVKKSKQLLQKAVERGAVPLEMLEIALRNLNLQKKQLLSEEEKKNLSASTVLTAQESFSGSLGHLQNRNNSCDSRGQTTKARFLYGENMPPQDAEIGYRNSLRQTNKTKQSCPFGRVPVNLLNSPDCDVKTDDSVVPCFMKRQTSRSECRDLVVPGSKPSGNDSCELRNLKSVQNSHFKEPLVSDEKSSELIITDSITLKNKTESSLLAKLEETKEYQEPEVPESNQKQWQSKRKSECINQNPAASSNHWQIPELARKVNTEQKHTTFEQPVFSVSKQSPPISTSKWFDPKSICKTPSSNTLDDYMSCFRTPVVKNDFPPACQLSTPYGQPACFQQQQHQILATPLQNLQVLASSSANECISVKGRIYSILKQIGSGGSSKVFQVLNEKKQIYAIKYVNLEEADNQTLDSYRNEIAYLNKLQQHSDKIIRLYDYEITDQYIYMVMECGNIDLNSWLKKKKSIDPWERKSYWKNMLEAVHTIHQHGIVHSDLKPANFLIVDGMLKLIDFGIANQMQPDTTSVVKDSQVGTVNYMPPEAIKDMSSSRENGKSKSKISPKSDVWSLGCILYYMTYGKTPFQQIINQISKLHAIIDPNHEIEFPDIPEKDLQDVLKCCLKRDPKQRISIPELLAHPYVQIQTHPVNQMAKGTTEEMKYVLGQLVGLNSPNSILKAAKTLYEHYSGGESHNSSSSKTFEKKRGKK
Test: Kinase Assay: For the assay 50 nl of a 100-fold concentrated solution of the test compound in DMSO was pipetted into a black low volume 384 well microtiter plate (Greiner Bio-One, Frickenhausen, Germany), 2 ul of a solution of Mps-1 in assay buffer [0.1 mM sodium-ortho-vanadate, 10 mM MgCl2, 2 mM DTT, 25 mM Hepes pH 7.7, 0.05% BSA, 0.001% Pluronic F-127] were added and the mixture was incubated for 15 min at 22° C. to allow pre-binding of the test compounds to Mps-1 before the start of the kinase reaction. Then the kinase reaction was started by the addition of 3 ul of a solution of 16.7 adenosine-tri-phosphate (ATP, 16.7 uM=>final conc. in the 5 ul assay volume is 10 uM) and peptide substrate (1.67 uM=>final conc. in the 5 ul assay volume is 1 uM) in assay buffer and the resulting mixture was incubated for a reaction time of 60 min at 22° C. The concentration of Mps-1 in the assay was adjusted to the activity of the enzyme lot and was chosen appropriate to have the assay in the linear range, typical enzyme concentrations were in the range of about 1 nM (final conc. in the 5 ul assay volume). […]

IC50 [nM]	Structure (SMILES)
151	CSc1nc(C#CCO)cn2c(-c3ccc(-c4cnc(C5CC5)[nH]4)cc3)cnc12
25.7	CSc1nc(-c2ccccc2)cn2c(-c3ccc(C(=O)NC4CC4)cc3)cnc12
